The compounds below were run against Enoyl-[acyl-carrier-protein] reductase [NADH] (Mycobacterium tuberculosis, UniProt P9WGR1, S94A).

With `CC(C)[C@H]1OC(=O)[C@H](C)[C@H](O)[C@H](Cc2cccnc2)NC(=O)[C@@H](NC(=O)c2ncccc2O)[C@@H](C)OC1=O` as the compound, how does the IC50 read?
Its IC50 is 32.8 µM.

How did the IC50 turn out when `CC[C@H]1OC(=O)[C@H](C)[C@H](O)[C@H](Cc2cccnc2)NC(=O)[C@@H](NC(=O)c2ncccc2O)[C@@H](C)OC1=O` was run?
The IC50 was 127 µM.

`CC[C@@H](C)[C@H]1OC(=O)[C@H](C)[C@H](O)[C@H](Cc2cccnc2)NC(=O)[C@@H](NC(=O)c2ncccc2O)[C@@H](C)OC1=O` was tested. Which IC50 did it give?
The IC50 was 31.5 µM.

How did the IC50 turn out when `C[C@@H]1C(=O)N[C@H](C2CCCCC2)C(=O)O[C@H](C)[C@H](NC(=O)c2ncccc2O)C(=O)N[C@@H](Cc2cccnc2)[C@@H]1O` was run?
Its IC50 is 291 µM.

With `C[C@H]1OC(=O)[C@@H](Cc2ccccc2)OC(=O)[C@H](C)[C@H](O)[C@H](Cc2cccnc2)NC(=O)[C@H]1NC(=O)c1ncccc1O` as the compound, how does the IC50 read?
Its IC50 is 29.1 µM.

With `CC[C@H](C)[C@H]1OC(=O)[C@H](C)[C@H](O)[C@H](Cc2cccnc2)NC(=O)[C@@H](NC(=O)c2ncccc2O)[C@@H](C)OC1=O` as the compound, how does the IC50 read?
The IC50 was 87.2 µM.

From ChEMBL document CHEMBL4376876 (J Med Chem, 2020)
